Tests used:
[1] = Kinetics study of TCO-Tz click reaction by UV spectroscopy (540 nm); conditions: MeCN, 20° C.
Method: FIG. 1: The kinetics of TCO E-02a and 3,6-di(pyridin-2-yl)-1,2,4,5-tetrazine with a concentration of 10 and 50 μM at 20° C. in MeCN.
The reaction rate in a TCO-Tz click reaction of E-02a was measured under similar conditions as described in Versteegen et al., Angewandte Chemie International Edition 2013, 52 (52), 14112-14116. The second order reaction constant of the reaction between 3,6-di(pyridin-2-yl)-1,2,4,5-tetrazine and E-02a was determined under second order conditions in MeCN at 20° C. by UV spectroscopy. A cuvette was filled with MeCN (2.8 mL) and equilibrated at 20° C. A stock solution of tetrazine in DMSO (100 μl) was added to the cuvette. The absorption of the tetrazine moiety was measured at 540 nm. Next, the cuvette was removed from the apparatus to add a stock solution of E-02a in DMSO (100 μl) and briefly mixed the solution by shaking the cuvette before placing it back into the apparatus. The absorption at 540 nm was measured for 15 minutes. From this absorption at 540 nm, the concentration of tetrazine was calculated using a molar absorption coefficient of ε=430 M^−1 cm^−1. […] TCO reactions known from the prior art (Versteegen et al., Angewandte Chemie International Edition 2013, 52 (52), 14112-14116, DOI: 10.1002/anie.201305969) were assessed at 83.3 μM and afforded a lower rate of 62, 5 M^−1s^−1 under similar conditions.

[2] = 19F-NMR kinetic study of click-to-release reaction (release of PFP)
Method: FIG. 2: ^19F-NMR kinetic study of the click-to-release reaction of 20 mM TCO (E-03a) with 3,6-di(pyridin-2-yl)-1,2,4,5-tetrazine at 20° C.
The ^19F NMR (377 MHz) spectrum of an NMR-tube filled with a solution of E-03a (5 mg, 1.0 equiv, 11.9 μmol) in CDCl3 (500 μl) was measured. Next, a solution of 3,6-di(pyridin-2-yl)-1,2,4,5-tetrazine (3.1 mg, 1.1 equiv, 13 μmol) in CDCl3 (100 μl) was added to the NMR tube. The tube was vigorously shaken and placed back in the NMR apparatus. The sample was measured within two minutes after the addition of the second compound. Every 48 seconds a measurement (number of scans: 4, relaxation delay: 5.8 see, range: −147.0 to −178.5 ppm) was taken of the sample. After 160 minutes the measurements were stopped.
Only after elevating the temperature to +10° C., the pentafluorophenyl carbonate was released from the conjugated product. Release of payload from compounds of the invention was not only found to be fast, but also complete. […] The fastest payload release observed with their compounds afforded less than 20% release over 250 minutes.

[3] = Stability test of TCO in deuterated PBS buffer at 37° C. followed by 1H-NMR; format: physicochemical; conditions: covered from light
Method: An NMR tube was charged with a solution of E-04a (41 mg) in deuterated PBS buffer (500 μl). The NMR sample was placed in a water bath at 37° C. while being covered from light by aluminum foil.

[4] = Kinetics study of fluorophore (AMC) release, fluorescence, with DM tetrazine; conditions: PBS pH=7.2, 37° C.
Method: (§1) A procedure adapted from prior art was followed (Fan, X. et al., Optimized tetrazine derivatives for rapid bioorthogonal decaging in living cells. Angew. Chem. 2016, 128 (45), 14252-14256.)
(§2) Stock solutions (all in DMSO) • Stock A (R): E-022a (10 mmolar) • Stock A (NR): E-022b (10 mmolar) • Stock B (DM): 3,6-Dimethyl-1,2,4,5-tetrazine (DM) (20 mmolar) • Stock B (BP): 3,6-Di-2-pyridyl-1,2,4,5-tetrazine (BP) (20 mmolar) • Stock PC: 7-Amino-4-methylcoumarin (10 mmolar) 2.5 μL of the tetrazine stock (DM or BP) was mixed with 395.5 μL of PBS (pH=7.2). 2 μL of the TCO stock (A (R) or A (NR)) was added to this. The reaction mixtures were incubated at 37° C. under mixing (300 rpm). Subsequently, the fluorescence (F1) was measured (ex: 380 nm, em. 450 nm) at certain time points after the addition of the TCO by aliquoting 30 μL in a 384 wells plate (Greiner, black non-binding flat bottom) and directly measuring with a Tecan Spark plate-reader. As control experiment the maximum amount of released AMC was measured (F2, Stock PC without tetrazine or TCO). […] The release efficiency (%) was calculated: F1/F2×100%. All experiments were executed in triplo and the data was processed using GraphPad Prism (version 9.0). The Kelim. values were determined by first-order exponential one phase decay approximations. […] For BP this value was 2.96*10^−6S^−1.

[5] = Kinetics study of fluorophore (AMC) release, fluorescence, with BP tetrazine; conditions: PBS pH=7.2, 37° C., first-order one phase fit
Method: as §1, §2

[6] = Kinetics study of doxorubicin release by HPLC/LCMS; conditions: PBS pH=7.2, 37° C., directly after addition of tetrazine
Method: Stock solutions (all in DMSO) • Stock E-025a: E-025a (10 mmolar) • Stock Ttz: 3,6-dimethyl-1,2,4,5-tetrazine (XA, 20 mmolar) Procedure: 100 μL of the TCO-Dox stock was added to 900 μL of PBS (pH=7.2) and HPLC analysis was done which only indicated starting material (t=13.08 min). Hereafter the reaction was incubated at 37° C. under mixing (300 rpm) and 500 μL of the Ttz stock was added. At certain time points after the addition of the Ttz the reaction mixture was analyzed by aliquoting 200 μL and analysis by HPLC/LCMS.

CCOC(=O)C1C2CC=CC(O)CCC21 (single isomer, unassigned) [E-02a]
second order rate constant k2 (reaction rate) of click reaction ([1]; concentration 10 μM): 249 M⁻¹ s⁻¹ | second order rate constant k2 (reaction rate) of click reaction ([1]; concentration 50 μM): 437 M⁻¹ s⁻¹

CCOC(=O)[C@H]1[C@@H]2CCC(OC(=O)Oc3c(F)c(F)c(F)c(F)c3F)C=CC[C@@H]21 (stereo in doubt) [E-03b, ethyl (1S,5R,8R,9S, E)-5-(((perfluorophenoxy)carbonyl)oxy)bicyclo[6.1.0]non-3-ene-9-carboxylate]
release rate compared with E-03a ([2]; E-03b used instead of E-03a): several factors slower

CCOC(=O)[C@H]1[C@@H]2CC[C@@H](OC(=O)Oc3c(F)c(F)c(F)c(F)c3F)/C=C/C[C@@H]21 [E-03a, ethyl (1S,5R,8R,9S, E)-5-(((perfluorophenoxy)carbonyl)oxy)bicyclo[6.1.0]non-3-ene-9-carboxylate]
release of PFP (pentafluorophenolate) after 20 minutes ([2]; 20 mM TCO, CDCl3, 20° C., 1.1 equiv tetrazine): Almost complete release | release upon tautomerization from the click product ([2]; lower temperatures, 40 mM, dipyridyl tetrazine): instantaneous | formation of pentafluorophenol from click conjugate ([2]; −20° C., 40 mM, dipyridyl tetrazine): did not show any formation of pentafluorophenol

O=C(O)[C@H]1[C@@H]2CC[C@@H](O)/C=C/C[C@@H]21 [E-04a, (1S,5R,8R,9S, E)-5-hydroxybicyclo[6.1.0]non-3-ene-9-carboxylic acid]
changes in the 1H-NMR spectrum after 7 days [3]: no changes

CCOC(=O)[C@H]1[C@@H]2CC[C@@H](OC(=O)Nc3ccc4c(C)cc(=O)oc4c3)/C=C\C[C@@H]21 [E-022a, COOEt-Exo-Axial-TCO-AMC]
Kelim. value of AMC release ([4]; DM tetrazine, first-order one phase fit): 8.15*10^−5 S^−1 | Kelim. value of AMC release [5]: 2.96*10^−6 S^−1

CCOC(=O)[C@H]1[C@@H]2CCC(OC(=O)Nc3ccc4c(C)cc(=O)oc4c3)/C=C\C[C@@H]21 (stereo partly drawn) [E-022b, COOEt-Exo-Equatorial-TCO-AMC]
AMC release compared with E-022a ([4]; tetrazine (DM or BP) not specified): slower

CCOC(=O)[C@H]1[C@@H]2CC[C@@H](OC(=O)N[C@H]3C[C@H](O[C@H]4C[C@](O)(C(=O)CO)Cc5c(O)c6c(c(O)c54)C(=O)c4c(OC)cccc4C6=O)O[C@@H](C)[C@@H]3O)/C=C\C[C@@H]21 [E-025a, COOEt-Exo-Axial-TCO-PNP]
release of doxorubicin after addition of the tetrazine [6]: almost instant release
